Converted amounts (≈) assume the structure as drawn. “Also recorded” adds a separate entry of the source. Like-named read-outs stand apart in the source and are kept apart here.
What was measured:
SaOatA [1] = target: T1, SaOatA (Staphylococcus aureus, UniProt Q2FV54); experiment: biochemical; conditions: for activity at 10 µM: pH 7, read-out: SaOatA 4MU-Ac 1° Screen (% RA)
T1 sequence (Q2FV54 435-603): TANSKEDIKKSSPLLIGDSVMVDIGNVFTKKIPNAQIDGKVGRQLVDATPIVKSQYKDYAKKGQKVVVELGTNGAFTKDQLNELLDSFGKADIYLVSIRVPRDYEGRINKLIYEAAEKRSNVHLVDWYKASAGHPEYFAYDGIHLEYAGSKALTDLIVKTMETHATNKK

NgPatB [2] = target: T2, NgPatB (Neisseria gonorrhoeae, UniProt Q5F966); experiment: NgPatB esterase inhibition, fluorometric assay with 4MU-Ac as substrate (HTS, dose response, Ki); format: biochemical; conditions: for activity at 10 µM: pH 7, read-out: NgPatB 4MU-Ac 1° Screen (% RA); for Mode of inhibition of NgPatB: 4MU-Ac as substrate, double reciprocal plot
Description: Determinations of Ki and mode of inhibition of NgPatBΔ100 were conducted using 4MU-Ac as a substrate. […] Initial velocities of substrate hydrolysis were obtained by fluorescence emission at 420 nm (390 nm excitation).
A large scale HTS was conducted at the SPARC BioCentre Drug Discovery Facility (The Hospital for Sick Children, Toronto, Canada) to identify additional inhibitors of PatBΔ100 acetylesterase activity. A total of 68,928 compounds were tested in singlicate, including 14,400 from the Maybridge HitFinder Collection, 50,000 from the ChemBridge DIVERset Collection, and 4,480 compounds representing plates 1–15 of the GlycoNET ChemBridge Collection maintained at the facility. The 4MU-Ac served as the substrate in the 384-well microtiter plate (NUNC 262260) fluorescent assay described above. The assay was optimized for use with this facility by altering enzyme and substrate concentrations, in addition to incubation times and reaction volume. As for the pilot screen, a Z’ for the assay was determined using Equation (1). […] This was followed by dispensing final concentrations of 20 µM compounds from the Maybridge HitFinder and ChemBridge DIVERset Collections or 10 µM compounds from the GlycoNET ChemBridge Collection using an Echo® 550 acoustic dispenser (Labcyte).

SaOatA [3] = target: T1, SaOatA; conditions: cited from earlier work
SaOatA [4] = target: T1, SaOatA; experiment: SaOatA esterase inhibition, chromogenic assay with pNP-Ac as substrate; format: biochemical
Description: (§1) With fluorometric assays, fluorescence quenching by compounds in the libraries could lead to their false identification as inhibitors. Thus, to confirm their inhibitory activity, we also tested esculin, esculetin, and scopoletin as inhibitors of PatBΔ69 and SaOatAΔ435 esterase activity using the chromogenic pNP-Ac as substrate. […] .
(§2) Hits which were seen to affect NgPatBΔ100 esterase activity in a dose dependent manner were also tested as inhibitors of the enzyme (0.75 µM, final concentration) using 2 mM pNP-Ac as substrate to identify false positives, due to fluorescence quenching under similar assay conditions. Similarly, hits which were seen to affect SaOatAΔ445 esterase activity in a dose dependent manner were also tested as inhibitors of the enzyme at 1.5 µM (final concentration) using 1.1 mM pNP-Ac.

NgPatB [5] = target: T2, NgPatB; experiment: NgPatB esterase inhibition, chromogenic assay with pNP-Ac as substrate; format: biochemical
Description: as §1, §2

[6] = Solubility limit in growth assays
SaOatA [7] = target: T1, SaOatA; conditions: 10 µM
E. coli BL21 = experiment: Microtiter plate growth / MIC assay, E. coli (negative control organism); conditions: for Effect on growth of E. coli: within solubility limits
N. gonorrhoeae FA1090 = experiment: Microtiter plate growth / MIC assay, N. gonorrhoeae
S. aureus ATCC 6538 = experiment: Microtiter plate growth / MIC assay, S. aureus; conditions: Staphylococcus aureus, ATCC6538, read-out: Growth of S. aureus ATCC 6538, % of control growth level reached
NgPatB [8] = target: T2, NgPatB; format: biochemical; conditions: 3 µM enzyme, pH 7.0
SaOatA [9] = target: SaOatA (Staphylococcus aureus, UniProt Q2FV54); format: biochemical; conditions: variant SaOatA445 (SaOatAΔ445), 5 µM enzyme, pH 6.5
[10] = read-out: SaOatA 4MU-Ac IC50, 4MU-Ac as substrate, values marked 2 in Table 1
[11] = listed as benzothiazolyl-pyrazolo-pyridine

T2 sequence (Q5F966 entry or part of it): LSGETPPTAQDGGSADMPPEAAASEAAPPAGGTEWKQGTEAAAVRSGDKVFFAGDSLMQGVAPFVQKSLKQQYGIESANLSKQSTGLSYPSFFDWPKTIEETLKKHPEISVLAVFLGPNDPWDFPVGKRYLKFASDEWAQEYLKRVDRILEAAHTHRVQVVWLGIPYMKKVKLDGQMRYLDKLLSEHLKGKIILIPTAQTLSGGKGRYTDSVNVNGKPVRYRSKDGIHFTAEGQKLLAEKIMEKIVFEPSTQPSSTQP

Compound | IC50 (NgPatB [2]) | IC50 (SaOatA [3]; [10]) | IC50 (SaOatA [4]) | IC50 (NgPatB [5]) | activity at 10 µM (SaOatA [1]) | activity at 10 µM (NgPatB [2]) | further results
O=c1ccc2cc(O[C@@H]3O[C@H](CO)[C@@H](O)[C@H](O)[C@H]3O)c(O)cc2o1 [Esculin] | 49.7 ± 3 µM | 75.8 ± 1 µM | 1350 ± 150 µM | 923 ± 9 µM |  |  | remaining activity at 10 µM (SaOatA [1]; read-out: SaOatA 4MU-Ac 1° Screen (% RA)): 47.8%; remaining activity at 10 µM (NgPatB [2]; read-out: NgPatB 4MU-Ac 1° Screen (% RA)): 38.4%; solubility [6]: 2050 µg/mL (≈ 6020 µM)
O=C1c2ccccc2C(=O)c2c(O)c(O)cc(O)c21 [purpurin, 1,2,4-trihydroxy-anthraquinone, reference compound] |  |  |  |  |  |  | Identified in pilot HTS as inhibitor of NgPatB (NgPatB [2]; pilot HTS, 10 µM): not identified; IC50 (SaOatA [3]; read-out: IC50 for SaOatA, earlier preliminary characterization): ~1100 µM; Identified in pilot HTS as inhibitor of SaOatA (SaOatA [7]): not identified
Cc1cc(=O)oc2cc(O)c(O)cc12 [4-Me-esculetin] |  |  |  |  | 98.3% | 92% | 
O=c1ccc2cc(O)c(O)cc2o1 [Esculetin] | 53.1 ± 1 µM | 106 ± 1.2 µM | 600 ± 140 µM | 853 ± 79 µM | 71% | 55.7% | MIC (E. coli BL21; Escherichia coli, BL21, read-out: MIC, E. coli BL21): 512 µg/mL (≈ 2870 µM); activity at 512 µg/mL (N. gonorrhoeae FA1090; Neisseria gonorrhoeae, FA1090, read-out: Growth of N. gonorrhoeae FA1090, % of control growth level reached): 25%; activity at 512 µg/mL (S. aureus ATCC 6538): 10%; Ki (NgPatB [2]): 86.7 ± 4.7 µM; Mode of inhibition of NgPatB (NgPatB [2]): competitive inhibitor
CC(=O)Oc1ccc([N+](=O)[O-])cc1 [pNP-Ac, p-nitrophenyl acetate] |  |  |  |  |  |  | Km (NgPatB [8]; variant NgPatB69 (NgPatBΔ69)): 1770 µM; kcat (NgPatB [8]; variant NgPatB69 (NgPatBΔ69)): 0.14 sec‐1; Km (NgPatB [8]; variant NgPatB100 (NgPatBΔ100)): 2060 µM; kcat (NgPatB [8]; variant NgPatB100 (NgPatBΔ100)): 0.44 sec‐1; Km (SaOatA [9]): 1140 µM; kcat (SaOatA [9]): 0.047 sec‐1
O=c1ccc2ccc(O)cc2o1 [Umbelliferone, 7-hydroxycoumarin] | 530 ± 70 µM | 98.5 ± 1.1 µM | > 3000 µM | > 3000 µM |  |  | 
CCCCn1c(C)c2c(=O)n(-c3nc4ccccc4s3)[nH]c2cc1=O [Compound 89224] | 22.1 ± 1.2 µM |  |  |  | 99.8% | 78.8% | Effect on growth of E. coli (E. coli BL21): did not affect the growth; also recorded: not affected; Effect on growth of E. coli (E. coli BL21; [11]): unaffected; Reduction in growth of N. gonorrhoeae (N. gonorrhoeae FA1090; 177 µg/mL, OD 600 nm vs control lacking compound): 90%; Ki (NgPatB [2]): 126 ± 19 µM; Mode of inhibition of NgPatB (NgPatB [2]): mixed/non-competitive inhibitor; Mode of inhibition of NgPatB (NgPatB [2]; [11]): non-competitive inhibitor; solubility [6]: ~177 µg/mL (≈ 499 µM)
O=c1ccc2ccccc2o1 [Coumarin, 1,2-benzopyrone] |  |  |  |  | 106% | 82.5% | 
Cc1cc(=O)oc2cc(O)ccc12 [Hymercrome, 7-hydroxy-4-methyl-coumarin, reference compound] | 615 ± 10 µM |  | > 3000 µM | > 3000 µM | 67.8% | 42.9% | IC50 (SaOatA [1]): > 3000 µM
COc1cc2oc(=O)ccc2cc1O [Isoscopoletin] |  |  |  |  | 115% | 53.5% | 
COc1cc2ccc(=O)oc2cc1O [Scopoletin] | 47.9 ± 4 µM | 103 ± 1.1 µM | 1170 ± 100 µM | 792 ± 7 µM | 21.4% | 30% | solubility [6]: 480 µg/mL (≈ 2500 µM)
